From patent US6737383B1, “Herbicidal oxadiazolidines” (priority 1999, dated 2004)

Tests used:
cocklebur = assay: Test B pre/postemergence cocklebur; type: in vivo, Xanthium strumarium
In short: (§1)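 Herbicidal effect was estimated by eye on a ten-point control scale after plants spent twelve to sixteen days in a greenhouse following soil or foliar treatment. Foliar sprays targeted plants at one to four leaves; all doses were formulated in a non-phytotoxic solvent with surfactant.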

rape = assay: Test B pre/postemergence rape; type: in vivo, Brassica napus
In short: as §1

morningglory = assay: Test B pre/postemergence morningglory; type: in vivo, Ipomoea hederacea
In short: as §1

pigweed = assay: Test B pre/postemergence pigweed; type: in vivo, Amaranthus retroflexus
In short: as §1

smallflower flatsedge = assay: Test B flood test smallflower flatsedge; type: in vivo, Cyperus difformis
In short: (§2)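 Each value is a visual injury score relative to controls, with 10 meaning complete control and 0 no effect. Evaluation took place twelve to sixteen days after the 2-leaf-stage plants were treated and kept in the greenhouse.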

wild oat = assay: Test B pre/postemergence wild oat; type: in vivo, Avena fatua
In short: as §1

blackgrass = assay: Test B pre/postemergence blackgrass; type: in vivo, Alopecurus myosuroides
In short: as §1

rice = assay: Test B flood test rice; type: in vivo, Oryza sativa
In short: as §2

giant foxtail = assay: Test B pre/postemergence giant foxtail; type: in vivo, Setaria faberii
In short: as §1

corn = assay: Test B pre/postemergence corn; type: in vivo, Zea mays
In short: as §1

wheat = assay: Test B pre/postemergence wheat; type: in vivo, Triticum aestivum
In short: as §1

bedstraw = assay: Test B pre/postemergence bedstraw; type: in vivo, Galium aparine
In short: as §1

soybean = assay: Test B pre/postemergence soybean; type: in vivo, Glycine max
In short: as §1

sugar beet = assay: Test B pre/postemergence sugar beet; type: in vivo, Beta vulgaris
In short: as §1

surinam grass = assay: Test B pre/postemergence surinam grass; type: in vivo, Brachiaria decumbens
In short: as §1

velvetleaf = assay: Test B pre/postemergence velvetleaf; type: in vivo, Abutilon theophrasti
In short: as §1

[1] = Preemergence, Rate 62 g/ha, scale of 0 to 10 where 0 is no effect and 10 is complete control
[2] = Preemergence, Rate 125 g/ha, 0 is no effect, 10 is complete control
[3] = Preemergence, Rate 250 g/ha, scale 0 to 10, 0 is no effect, 10 is complete control
[4] = Preemergence, Rate 500 g/ha, scale of 0 to 10 where 0 is no effect and 10 is complete control
[5] = Rate 62 g/ha, Postemergence, scale of 0 to 10 where 0 is no effect and 10 is complete control
[6] = Rate 125 g/ha, Postemergence, scale 0 to 10
[7] = Rate 500 g/ha, Postemergence, scale 0 to 10
[8] = Rate 62 g/ha, headed Pre-emergence (flood test species), scale 0 to 10 (0 no effect, 10 complete control)
[9] = Rate 125 g/ha, Pre-emergence, flood test species, scale 0 to 10 where 0 is no effect and 10 is complete control
[10] = Rate 250 g/ha, Pre-emergence, flood-test species, scale 0 to 10, 0 is no effect, 10 is complete control
[11] = Rate 500 g/ha, Pre-emergence, flood test species, scale 0 to 10 (0 no effect, 10 complete control)

CC(C)N(C(=O)n1oc(=O)n(Cc2ccco2)c1=O)c1ccc(F)cc1 [Compound 207]
Cocklebur plant response rating (cocklebur; [1]): 0 | Cocklebur plant response rating (0 to 10 scale) (cocklebur; [2]): 0 | Cocklebur plant response rating (cocklebur; [3]): 0 | Plant response rating, Cocklebur (cocklebur; [4]): 0 | Cocklebur plant response rating (cocklebur; [5]): 0 | Cocklebur plant response rating (cocklebur; [6]): 0 | Plant response rating (0 to 10; 0 is no effect, 10 is complete control), Cocklebur (cocklebur; Rate 250 g/ha, Postemergence): 0 | Cocklebur plant response rating (cocklebur; [7]): 3 | Rape plant response rating (rape; [1]): 0 | Rape plant response rating (0 to 10 scale) (rape; [2]): 0 | Rape plant response rating (rape; [3]): 0 | Plant response rating, Rape (rape; [4]): 2 | Rape plant response rating (rape; [5]): 0 | Rape plant response rating (rape; [6]): 0 | Plant response rating (0 to 10; 0 is no effect, 10 is complete control), Rape (rape; Rate 250 g/ha, Postemergence): 0 | Rape plant response rating (rape; [7]): 2 | Morningglory plant response rating (morningglory; [1]): 0 | Morningglory plant response rating (0 to 10 scale) (morningglory; [2]): 0 | Morningglory plant response rating (morningglory; [3]): 0 | Plant response rating, Morningglory (morningglory; [4]): 0 | Morningglory plant response rating (morningglory; [5]): 0 | Morningglory plant response rating (morningglory; [6]): 2 | Plant response rating (0 to 10; 0 is no effect, 10 is complete control), Morningglory (morningglory; Rate 250 g/ha, Postemergence): 2 | Morningglory plant response rating (morningglory; [7]): 3 | Redroot pigweed plant response rating (pigweed; [1]): 0 | Redroot pigweed plant response rating (0 to 10 scale) (pigweed; [2]): 0 | Redroot pigweed plant response rating (pigweed; [3]): 2 | Plant response rating, Redroot pigweed (pigweed; [4]): 8 | Redroot pigweed plant response rating (pigweed; [5]): 0 | Redroot pigweed plant response rating (pigweed; [6]): 0 | Plant response rating (0 to 10; 0 is no effect, 10 is complete control), Redroot pigweed (pigweed; Rate 250 g/ha, Postemergence): 0 | Redroot pigweed plant response rating (pigweed; [7]): 0 | S. Flatsedge plant response rating (smallflower flatsedge; [8]): 0 | S. Flatsedge plant response rating (smallflower flatsedge; [9]): 0 | S. Flatsedge plant response rating (smallflower flatsedge; [10]): 0 | S. Flatsedge plant response rating (smallflower flatsedge; [11]): 0 | Wild oats plant response rating (wild oat; [1]): 0 | Wild oats plant response rating (wild oat; [3]): 0 | Plant response rating, Wild oats (wild oat; [4]): 0 | Wild oats plant response rating (wild oat; [5]): 0 | Wild oats plant response rating (wild oat; [6]): 0 | Plant response rating (0 to 10; 0 is no effect, 10 is complete control), Wild oats (wild oat; Rate 250 g/ha, Postemergence): 0 | Blackgrass plant response rating (blackgrass; [1]): 0 | Blackgrass plant response rating (0 to 10 scale) (blackgrass; [2]): 0 | Blackgrass plant response rating (blackgrass; [3]): 4 | Plant response rating, Blackgrass (blackgrass; [4]): 7 | Blackgrass plant response rating (blackgrass; [5]): 0 | Blackgrass plant response rating (blackgrass; [6]): 2 | Plant response rating (0 to 10; 0 is no effect, 10 is complete control), Blackgrass (blackgrass; Rate 250 g/ha, Postemergence): 2 | Blackgrass plant response rating (blackgrass; [7]): 4 | Rice plant response rating (rice; [8]): 0 | Rice plant response rating (rice; [9]): 0 | Rice plant response rating (rice; [10]): 0 | Rice plant response rating (rice; [11]): 0 | Giant foxtail plant response rating (giant foxtail; [1]): 3 | Giant foxtail plant response rating (0 to 10 scale) (giant foxtail; [2]): 6 | Giant foxtail plant response rating (giant foxtail; [3]): 9 | Plant response rating, Giant foxtail (giant foxtail; [4]): 10 | Giant foxtail plant response rating (giant foxtail; [5]): 0 | Giant foxtail plant response rating (giant foxtail; [6]): 0 | Plant response rating (0 to 10; 0 is no effect, 10 is complete control), Giant foxtail (giant foxtail; Rate 250 g/ha, Postemergence): 1 | Giant foxtail plant response rating (giant foxtail; [7]): 2 | Corn plant response rating (corn; [1]): 0 | Corn plant response rating (0 to 10 scale) (corn; [2]): 0 | Corn plant response rating (corn; [3]): 0 | Plant response rating, Corn (corn; [4]): 0 | Corn plant response rating (corn; [5]): 0 | Corn plant response rating (corn; [6]): 0 | Plant response rating (0 to 10; 0 is no effect, 10 is complete control), Corn (corn; Rate 250 g/ha, Postemergence): 0 | Corn plant response rating (corn; [7]): 0 | Wheat plant response rating (wheat; [1]): 0 | Wheat plant response rating (wheat; [3]): 0 | Plant response rating, Wheat (wheat; [4]): 0 | Wheat plant response rating (wheat; [5]): 0 | Wheat plant response rating (wheat; [6]): 0 | Plant response rating (0 to 10; 0 is no effect, 10 is complete control), Wheat (wheat; Rate 250 g/ha, Postemergence): 0 | Bedstraw plant response rating (bedstraw; [1]): 0 | Bedstraw plant response rating (0 to 10 scale) (bedstraw; [2]): 0 | Bedstraw plant response rating (bedstraw; [3]): 0 | Plant response rating, Bedstraw (bedstraw; [4]): 0 | Bedstraw plant response rating (bedstraw; [5]): 0 | Bedstraw plant response rating (bedstraw; [6]): 0 | Plant response rating (0 to 10; 0 is no effect, 10 is complete control), Bedstraw (bedstraw; Rate 250 g/ha, Postemergence): 5 | Bedstraw plant response rating (bedstraw; [7]): 5 | Soybean plant response rating (soybean; [1]): 0 | Soybean plant response rating (0 to 10 scale) (soybean; [2]): 0 | Soybean plant response rating (soybean; [3]): 0 | Plant response rating, Soybean (soybean; [4]): 0 | Soybean plant response rating (soybean; [5]): 1 | Soybean plant response rating (soybean; [6]): 2 | Plant response rating (0 to 10; 0 is no effect, 10 is complete control), Soybean (soybean; Rate 250 g/ha, Postemergence): 2 | Soybean plant response rating (soybean; [7]): 5 | Sugarbeets plant response rating (sugar beet; [1]): 0 | Sugarbeets plant response rating (0 to 10 scale) (sugar beet; [2]): 0 | Sugarbeets plant response rating (sugar beet; [3]): 0 | Plant response rating, Sugarbeets (sugar beet; [4]): 0 | Sugarbeets plant response rating (sugar beet; [5]): 0 | Sugarbeets plant response rating (sugar beet; [6]): 0 | Plant response rating (0 to 10; 0 is no effect, 10 is complete control), Sugarbeets (sugar beet; Rate 250 g/ha, Postemergence): 0 | Sugarbeets plant response rating (sugar beet; [7]): 2 | B. signalgrass plant response rating (surinam grass; [1]): 0 | B. signalgrass plant response rating (0 to 10 scale) (surinam grass; [2]): 0 | B. signalgrass plant response rating (surinam grass; [3]): 0 | Plant response rating, B. signalgrass (surinam grass; [4]): 0 | B. signalgrass plant response rating (surinam grass; [5]): 0 | B. signalgrass plant response rating (surinam grass; Rate 125 g/ha, Postemergence, scale 0 (no effect) to 10 (complete control)): 0 | Plant response rating, B. signalgrass (surinam grass; Rate 250 g/ha, Postemergence, scale 0 to 10, 0 is no effect, 10 is complete control): 0 | B. signalgrass plant response rating (surinam grass; Rate 500 g/ha, Postemergence, scale 0 to 10, 0 no effect, 10 complete control): 0 | Velvetleaf plant response rating (velvetleaf; [1]): 0 | Velvetleaf plant response rating (velvetleaf; [3]): 0 | Plant response rating, Velvetleaf (velvetleaf; [4]): 5 | Velvetleaf plant response rating (velvetleaf; [5]): 0 | Velvetleaf plant response rating (velvetleaf; [6]): 1 | Plant response rating (0 to 10; 0 is no effect, 10 is complete control), Velvetleaf (velvetleaf; Rate 250 g/ha, Postemergence): 1
